Type in all cases: cell-based
One test deals with T1, human TLR7 (Homo sapiens, UniProt Q9NYK1).
T1 construct: host or cells: HEK-Blue cells (HEK293-derived reporter line)
T1 sequence (Q9NYK1 27-1049): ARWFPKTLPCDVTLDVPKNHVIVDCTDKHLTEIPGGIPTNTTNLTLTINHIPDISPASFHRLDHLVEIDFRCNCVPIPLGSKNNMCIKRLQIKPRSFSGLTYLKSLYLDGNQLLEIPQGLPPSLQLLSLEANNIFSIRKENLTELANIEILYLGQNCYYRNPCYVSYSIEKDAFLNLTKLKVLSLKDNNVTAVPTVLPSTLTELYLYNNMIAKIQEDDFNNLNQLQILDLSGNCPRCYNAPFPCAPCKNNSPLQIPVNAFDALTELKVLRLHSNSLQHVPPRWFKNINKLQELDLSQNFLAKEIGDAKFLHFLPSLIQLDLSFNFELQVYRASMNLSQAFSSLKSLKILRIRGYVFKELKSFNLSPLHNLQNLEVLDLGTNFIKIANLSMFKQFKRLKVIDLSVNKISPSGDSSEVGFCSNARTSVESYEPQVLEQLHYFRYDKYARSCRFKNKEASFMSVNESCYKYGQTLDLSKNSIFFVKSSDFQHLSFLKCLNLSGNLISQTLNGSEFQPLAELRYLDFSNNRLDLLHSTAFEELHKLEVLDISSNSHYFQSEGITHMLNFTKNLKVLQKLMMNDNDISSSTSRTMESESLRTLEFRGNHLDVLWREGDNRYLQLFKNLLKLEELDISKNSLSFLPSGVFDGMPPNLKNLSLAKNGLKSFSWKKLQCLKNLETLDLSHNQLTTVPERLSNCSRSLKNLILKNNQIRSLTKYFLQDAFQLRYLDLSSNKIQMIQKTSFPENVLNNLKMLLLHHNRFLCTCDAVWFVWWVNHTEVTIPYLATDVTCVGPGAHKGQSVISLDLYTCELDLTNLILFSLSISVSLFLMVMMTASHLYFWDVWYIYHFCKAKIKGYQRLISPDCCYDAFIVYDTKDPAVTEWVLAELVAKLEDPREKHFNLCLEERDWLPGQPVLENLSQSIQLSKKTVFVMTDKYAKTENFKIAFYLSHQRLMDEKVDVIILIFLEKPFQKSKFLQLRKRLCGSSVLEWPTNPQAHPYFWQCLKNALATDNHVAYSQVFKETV
Description: TLR7 inhibition reporter assay (HEK-Blue cells, SEAP reporter, gardiquimod stimulation). The conditions noted are these: HEK-Blue cells overexpressing human TLR7, SEAP reporter, gardiquimod 7.5 μM. The essentials: (§1)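 HEK-Blue cells overexpressing human TLR7, TLR8 or TLR9 (NF-κB/AP-1-driven SEAP) pre-treated 30 min at room temperature with compound (0.05 nM–50 μM), then stimulated with gardiquimod 7.5 μM (TLR7), R848 15.9 μM (TLR8) or ODN2006 5 nM (TLR9). SEAP read colorimetrically after 22 h at 37 °C; % inhibition calculated.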
(In general: A reporter such as luciferase makes a cellular process visible.)

The target of a further test is T2, human TLR9 (Homo sapiens, UniProt Q9NR96).
T2 construct: host or cells: HEK-Blue cells (HEK293-derived reporter line)
T2 sequence (Q9NR96 26-1032): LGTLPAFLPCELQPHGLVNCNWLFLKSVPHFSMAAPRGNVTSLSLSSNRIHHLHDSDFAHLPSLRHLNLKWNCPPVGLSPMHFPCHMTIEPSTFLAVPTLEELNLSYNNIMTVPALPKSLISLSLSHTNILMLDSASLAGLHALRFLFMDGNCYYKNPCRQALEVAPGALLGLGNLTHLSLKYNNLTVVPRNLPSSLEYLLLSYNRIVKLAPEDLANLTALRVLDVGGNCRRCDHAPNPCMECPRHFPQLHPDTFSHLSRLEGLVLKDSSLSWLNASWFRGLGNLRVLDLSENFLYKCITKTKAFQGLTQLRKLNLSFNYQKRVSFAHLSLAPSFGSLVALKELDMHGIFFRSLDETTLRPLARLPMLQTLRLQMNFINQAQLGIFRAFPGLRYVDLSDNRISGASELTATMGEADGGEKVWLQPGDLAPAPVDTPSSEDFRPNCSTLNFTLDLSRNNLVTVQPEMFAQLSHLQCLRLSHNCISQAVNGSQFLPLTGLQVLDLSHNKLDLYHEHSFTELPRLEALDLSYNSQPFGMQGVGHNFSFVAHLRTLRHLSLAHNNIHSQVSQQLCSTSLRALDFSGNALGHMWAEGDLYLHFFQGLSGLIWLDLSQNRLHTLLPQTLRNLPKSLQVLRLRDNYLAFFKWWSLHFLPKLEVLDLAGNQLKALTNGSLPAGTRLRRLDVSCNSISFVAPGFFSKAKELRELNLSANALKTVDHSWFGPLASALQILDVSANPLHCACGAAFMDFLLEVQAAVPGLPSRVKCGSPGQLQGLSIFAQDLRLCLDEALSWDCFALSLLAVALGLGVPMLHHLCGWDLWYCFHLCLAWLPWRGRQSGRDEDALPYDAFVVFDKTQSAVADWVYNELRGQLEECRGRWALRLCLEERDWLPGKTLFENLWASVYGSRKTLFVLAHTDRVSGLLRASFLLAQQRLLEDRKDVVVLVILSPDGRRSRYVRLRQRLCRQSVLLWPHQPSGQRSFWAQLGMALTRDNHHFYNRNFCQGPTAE
Nature of the test: TLR9 inhibition reporter assay (HEK-Blue cells, SEAP reporter, ODN2006 stimulation). The following applies: HEK-Blue cells overexpressing human TLR9, SEAP reporter, ODN2006 5 nM. The essentials: as §1

A further test has as its target T3, human TLR8 (Homo sapiens, UniProt Q9NR97).
T3 construct: host or cells: HEK-Blue cells (HEK293-derived reporter line)
T3 sequence (Q9NR97 27-1041): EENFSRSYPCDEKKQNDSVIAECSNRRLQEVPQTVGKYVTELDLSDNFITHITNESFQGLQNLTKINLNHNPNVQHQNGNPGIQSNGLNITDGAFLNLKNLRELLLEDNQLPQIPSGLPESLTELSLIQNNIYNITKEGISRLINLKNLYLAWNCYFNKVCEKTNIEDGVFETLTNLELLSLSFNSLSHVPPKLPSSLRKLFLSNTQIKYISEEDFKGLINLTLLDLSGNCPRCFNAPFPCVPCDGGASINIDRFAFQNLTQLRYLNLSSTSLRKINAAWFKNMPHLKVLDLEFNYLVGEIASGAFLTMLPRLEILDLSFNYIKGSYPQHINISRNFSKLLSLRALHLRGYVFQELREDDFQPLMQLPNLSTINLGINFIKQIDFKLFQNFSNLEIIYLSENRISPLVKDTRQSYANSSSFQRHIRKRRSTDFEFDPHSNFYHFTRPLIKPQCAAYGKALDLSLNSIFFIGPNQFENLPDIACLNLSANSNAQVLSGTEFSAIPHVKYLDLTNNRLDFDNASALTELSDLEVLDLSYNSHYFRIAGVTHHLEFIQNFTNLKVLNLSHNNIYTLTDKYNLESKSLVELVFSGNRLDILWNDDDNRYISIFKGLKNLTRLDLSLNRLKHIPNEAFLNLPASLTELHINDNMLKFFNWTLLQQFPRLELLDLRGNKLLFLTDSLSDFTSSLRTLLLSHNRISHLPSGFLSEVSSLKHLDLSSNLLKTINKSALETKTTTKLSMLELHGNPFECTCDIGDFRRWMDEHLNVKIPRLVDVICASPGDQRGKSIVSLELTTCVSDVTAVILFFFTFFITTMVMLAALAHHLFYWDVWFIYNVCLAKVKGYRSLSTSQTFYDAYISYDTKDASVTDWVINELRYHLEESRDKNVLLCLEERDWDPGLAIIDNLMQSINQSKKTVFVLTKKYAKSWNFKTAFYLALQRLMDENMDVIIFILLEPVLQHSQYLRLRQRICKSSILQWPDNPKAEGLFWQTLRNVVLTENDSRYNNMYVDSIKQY
Nature of the test: TLR8 inhibition reporter assay (HEK-Blue cells, SEAP reporter, R848 stimulation). The following applies: HEK-Blue cells overexpressing human TLR8, SEAP reporter, R848 15.9 μM. The essentials:
as §1

Bounds are passed on as bounds.

A word on the IC50: it is the midpoint of a concentration-inhibition curve.

Take `Cc1c(-c2[nH]c3ccc(C4CCN(CC(=O)N(C)C)CC4)cc3c2C(C)C)cn2nnnc2c1C` [Example 309, 2-(4-(2-(7,8-dimethyltetrazolo[1,5-a]pyridin-6-yl)-3-isopropyl-1H-indol-5-yl)piperidin-1-yl)-N,N-dimethylacetamide]: the results for the IC50 against human TLR7, at human TLR9 and at human TLR8 were under 100 nM, 1000 to 50000 nM and under 100 nM, respectively.

For `Cc1cc(-c2[nH]c3ccc(C4CCN(CCCC(F)(F)F)CC4)cc3c2C(C)C)cn2nncc12` [Example 960, 6-(3-isopropyl-5-(1-(4,4,4-trifluorobutyl)piperidin-4-yl)-1H-indol-2-yl)-4-methyl-[1,2,3]triazolo[1,5-a]pyridine], the IC50 is 100 to 1000 nM on human TLR7, 1000 to 50000 nM on human TLR9 and 100 to 1000 nM against human TLR8.

Regarding `CNC(=O)CN1CCC(c2ccc3[nH]c(-c4cccn5ncnc45)c(C(C)C)c3c2)CC1` [Example 361, 2-(4-(2-([1,2,4]triazolo[1,5-a]pyridin-8-yl)-3-isopropyl-1H-indol-5-yl)piperidin-1-yl)-N-methylacetamide], the IC50 was 100 to 1000 nM on human TLR7, 1000 to 50000 nM against human TLR9 and 100 to 1000 nM on human TLR8.

`CC(C)c1c(-c2ccnc3[nH]ncc23)[nH]c2cc(F)c(C3CCN(C4CCN(C(C)C)CC4)CC3)cc12` [Example 830, 4-(6-fluoro-3-isopropyl-5-(1′-isopropyl-[1,4′-bipiperidin]-4-yl)-1H-indol-2-yl)-1H-pyrazolo[3,4-b]pyridine]: the IC50 at human TLR7, against human TLR9 and against human TLR8 was under 100 nM in each case.

`Cc1cc(-c2[nH]c3ccc(C4CCNCC4)cc3c2C(C)C)cn2cc(C(=O)N(C)CCO)nc12` [Example 268, N-(2-hydroxyethyl)-6-(3-isopropyl-5-(piperidin-4-yl)-1H-indol-2-yl)-N,8-dimethylimidazo[1,2-a]pyridine-2-carboxamide]: the values for the IC50 against human TLR7, against human TLR9 and on human TLR8 were under 100 nM, 1000 to 50000 nM and under 100 nM, respectively.

In the case of `CNCCN1CCC(c2ccc3[nH]c(-c4ccc5c(c4)OCO5)c(C)c3c2)CC1` [Example 670, 2-(4-(2-(benzo[d][1,3]dioxol-5-yl)-3-methyl-1H-indol-5-yl)piperidin-1-yl)-N-methylethan-1-amine], the values for the half-inhibitory concentration (IC50) at human TLR7, on human TLR9 and on human TLR8 were 100 to 1000 nM, 1000 to 50000 nM and 100 to 1000 nM, respectively.

Turning to `CC(C)c1c(-c2cn3ccnc3cc2C(F)(F)F)[nH]c2ccc(C3CCN(CC(=O)N(C)C)CC3)cc12` [Example 427, 2-(4-(3-isopropyl-2-(7-(trifluoromethyl)imidazo[1,2-a]pyridin-6-yl)-1H-indol-5-yl)piperidin-1-yl)-N,N-dimethylacetamide], the IC50 on human TLR7 is 100 to 1000 nM; against human TLR9 it was 1000 to 50000 nM; against human TLR8, under 100 nM.

Turning to `CC(C)c1c(-c2cc(CO)c3nnnn3c2)[nH]c2ccc(C3CCN(C4COC4)CC3)cc12` [Example 738, (6-(3-isopropyl-5-(1-(oxetan-3-yl)piperidin-4-yl)-1H-indol-2-yl)tetrazolo[1,5-a]pyridin-8-yl)methanol], the IC50 was under 100 nM at human TLR7, 1000 to 50000 nM against human TLR9 and under 100 nM against human TLR8.

Consider `Cc1cc(-c2[nH]c3ccc(C4CCN(C5COC5)CC4)cc3c2C(C)C)cc2ccnn12` [Example 720, 5-(3-isopropyl-5-(1-(oxetan-3-yl)piperidin-4-yl)-1H-indol-2-yl)-7-methylpyrazolo[1,5-a]pyridine], for which the figures for the IC50 at human TLR7, at human TLR9 and on human TLR8 were under 100 nM, 1000 to 50000 nM and under 100 nM, respectively.

For the molecule `CNCCN1CCC(c2ccc3[nH]c(-c4ccc5c(ccn5C)c4)c(C)c3c2)CC1` [Example 672, 2-(4-(1′,3-dimethyl-1H,1′H-[2,5′-biindol]-5-yl)piperidin-1-yl)-N-methylethan-1-amine], the IC50 was over 50000 nM against human TLR7, 100 to 1000 nM against human TLR9 and over 3130 nM on human TLR8.

As for `CCc1c(-c2ccnc3[nH]ncc23)[nH]c2ccc(C3CCN(Cc4nc(C)oc4C)CC3)cc12` [Example 898, 4-((4-(3-ethyl-2-(1H-pyrazolo[3,4-b]pyridin-4-yl)-1H-indol-5-yl)piperidin-1-yl)methyl)-2,5-dimethyloxazole], the IC50 is 100 to 1000 nM against human TLR7, 1000 to 50000 nM at human TLR9 and under 100 nM on human TLR8.

Consider `CCc1c(-c2cnnc3[nH]ccc23)[nH]c2ccc(C3CCNCC3)cc12` [Example 245, 4-(3-ethyl-5-(piperidin-4-yl)-1H-indol-2-yl)-7H-pyrrolo[2,3-c]pyridazine], for which the IC50 against human TLR7 lay in the range of 100 to 1000 nM; against human TLR9, 1000 to 50000 nM; at human TLR8, 100 to 1000 nM.

`CNC(=O)CN1CCC(c2ccc3[nH]c(-c4cc(OC)c5nccn5c4)c(C(C)C)c3c2)CC1` [Example 434, 2-(4-(3-isopropyl-2-(8-methoxyimidazo[1,2-a]pyridin-6-yl)-1H-indol-5-yl)piperidin-1-yl)-N-methylacetamide]: the IC50 against human TLR7 was under 100 nM; at human TLR9 it was 100 to 1000 nM; at human TLR8, under 100 nM.

The values are drawn from patent US11739098B2 (BRISTOL-MYERS SQUIBB COMPANY, priority 2017, dated 2023).
